The nature of the data set: pKa of the oil-soluble basic compound by alkalimetry. The class given is physicochemical. The conditions noted are these: ethanol/water solution, alkalimetry at 25° C. Here is the method: As is commonly known, the pKa value refers to a logarithmic acid dissociation constant (Ka), i.e., pKa=−logKa, which is also called an acid electrolytic dissociation exponent. The pKa value of the oil-soluble basic compound can be determined by the alkalimetry, in the following manner. Thus, 50 mg pf a compound sample is dissolved in 40 ml of ethanol and after adding 10 ml of distilled water thereto, 3 ml of a 0.5 mol/l hydrochloric solution and 12 ml of ethanol are further added. The thus prepared solution is subjected to an alkalimetry at a temperature of 25° C. using an alkaline solution (which is comprised of 2.0 g of sodium hydroxide, 200 ml of distilled water and 800 ml of ethanol) and an automatic titration apparatus (Auto Titrator AUT-301, available from TOA electronics, Ltd.).
In general, pKa refers to the pH at which an ionisable group is half protonated. A lower pKa goes with a group that gives up its proton readily. `CCCCCCCCCCCCCCOc1ccc(N2CCCCC2)cc1` [Compd.-2] gave a pKa of 5.
`CCCCCCCCCCCCCCOC(=O)CCN1CCN(CCC(=O)OCCCCCCCCCCCCCC)CC1` [OC-4] registered a pKa of 6.2.
The same measure for `CC1(C)CC(OC(=O)CCCCCCCCC(=O)OC2CC(C)(C)NC(C)(C)C2)CC(C)(C)N1` [Compd.-3]: 8.7; for `CCCCCCCCCCCCN1CCN(CCCCCCCCCCCC)CC1` [OC-6]: 7.2.

The values above are taken from patent publication US6656676B2, “Silver halide color photographic material” (Konica Corporation, priority 2001, dated 2003).
